This experiment has as its system KCNQ channels. Kind of experiment: Thallium flux assay for KCNQ channel openers. It counts as cell-based. The conditions noted are these: HEK-293 cells stably transfected with a KCNQ family member; for Min. conc. response: minimal active concentration: lowest concentration giving signal amplitude >= four standard deviations of negative controls; for EC50: thallium flux, 10 point concentration series. The procedure: Thallium Flux Assay for KCNQ channel Openers. The thallium assay is a modification of that published by Weaver and is referenced in its entirety (Weaver, C. D. WO 02/31508, 2002).
Approximately 20,000 cells/well of an HEK-293 cell line stably transfected with one of the members of the KCNQ family were plated into clear-bottom, black-walled, poly-D-lysine coated, 384 well assay plates in 20 μl/well of low chloride plating medium. Low chloride plating medium was composed of the following: sodium gluconate, 109 mM; potassium gluconate, 5.4 mM; hemi-calcium gluconate, 3.6 mM; magnesium sulfate, 0.8 mM; sodium bicarbonate, 26.2 mM; sodium phosphate monobasic, 1.2 mM; glutamine, 2 mM; glucose, 5 mM; 4-(2-hydroxyethyl)-1-piperazineethanesulfonic acid (HEPES) (pH 7.3) 10 mM, MEM vitamin solution (10× concentration of vitamins, Gibco/LifeTechnologies 11120-052) and MEM amino acid solution (1× concentration of amino acids, Gibco/LifeTechnologies 11130-051).
Following overnight incubation in a 5% CO2 incubator at 37° C., the cells in the plates were loaded with 20 μl/well of a dye loading solution containing the commercially available thallium-sensitive fluorescent dye BTC-AM, the acetomethoxy ester of BTC (see U.S. Pat. No. 5,501,980) (2 μM) and pluronic acid F-127 (Molecular Probes P 6867) (0.02% w/v) in chloride free assay buffer. Chloride free assay buffer was composed of the following: sodium gluconate, 140 mM; potassium gluconate, 2.5 mM; hemi-calcium gluconate, 6 mM; hemi-magnesium gluconate, 2 mM; glucose, 5 mM; HEPES (pH 7.3), 10 mM.
Following incubation in the dye loading solution for from 45-90 min at room temperature, the dye loading solution was removed by aspiration and replaced with 40 μl/well of chloride free assay buffer.
Prior to addition to cell plates, test compound and standard compounds were dissolved in DMSO to 3 mM concentration. Compounds were then diluted from the 3 mM stock to 100-fold over the final assay concentration in DMSO. Finally, compounds in DMSO were diluted from 100-fold over the final assay concentration to 5-fold over the final assay concentration in chloride free assay buffer.
Ten μl/well of compounds at 5-fold over the final assay concentration were then added to the cell plates. This represents a 1:5 dilution, yielding the final test concentration. The wells used for test compounds were A1-P20. Wells A21-P22 contained a standard opener and a maximally efficacious concentration (positive control). Wells A23-P24 contained chloride free assay buffer containing 1% DMSO (negative control).
Following addition of test compounds, the plates were loaded onto the Molecular Devices FLIPR. The 488 nm line of the argon laser was used to excite the BTC and the emission filter was a 540(+/−30) nm. Images were collected at 1 Hz. Ten seconds of baseline were collected and then the FLIPR was used to add 13 μl/well of a stimulus buffer composed of 7.5 mM Tl2SO4 in chloride free assay buffer. Images were collected for an additional 60 seconds.
For data analysis, the amplitude of the average of the negative controls was subtracted from all wells. The amplitudes of the test compounds were then compared to the value of four standard deviations of the negative control wells. The lowest concentration of a test compound sufficient to generate a signal amplitude greater than or equal to four standard deviations from the amplitude of the negative controls was defined as the minimal active concentration.
For generating EC50 values, compounds were serially diluted in 1:3 volume increments to produce a 10 point concentration series. EC50 values were calculated by fitting the resulting amplitudes to a single-site logistic equation. EC50 was defined as the concentration of test compound required to yield 50% of the maximal response. Maximal response (Maximal opening) was the largest signal amplitude divided by the negative control amplitude generated by any concentration of a test compound. […]

Where only a bound is given, the exact number is not on record here.

The values that follow come from patent US7273866B2, “2-aryl thiazole derivatives as KCNQ modulators” (Bristol-Myers Squibb Company, priority 2002, dated 2007).

Regarding `COc1cccc(-c2nc(C(F)(F)F)c(C(=O)N[C@@H](C)c3cccc(OC(F)(F)F)c3)s2)c1` (stereo in doubt) [Example 24, 2-(3-methoxyphenyl)-4-(trifluoromethyl)-N-[1-[3-(trifluoromethoxy)phenyl]ethyl]-5-thiazolecarboxamide], the Min. conc. response came out at 3 µM and the concentration giving a half-maximal response (EC50) lay within 50 to 1000 nM. The molecule `COc1cccc([C@H](C)NC(=O)c2sc(-c3cccc(N4CCOCC4)c3)nc2C(F)(F)F)c1` (stereo in doubt) [Example 99] gave a Min. conc. response of 3 µM. With `CC(NC(=O)c1sc(-c2ccc(F)cc2)nc1C(F)(F)F)c1cccc(OC(F)(F)F)c1` (stereo not shown) [Example 17, 2-(4-fluorophenyl)-4-(trifluoromethyl)-N-[1-[3-(trifluoromethoxy)phenyl]ethyl]-5-thiazolecarboxamide], the Min. conc. response worked out at 0.3 µM and the EC50 is under 50 nM. The like results for `COc1ccccc1-c1nc(C(F)(F)F)c(C(=O)NC(C)c2cccc(OC(F)(F)F)c2)s1` (stereo not shown) [Example 18, 2-(2-methoxyphenyl)-4-(trifluoromethyl)-N-[1-[3-(trifluoromethoxy)phenyl]ethyl]-5-thiazolecarboxamide] were, in that order, 0.3 µM and under 50 nM.

`COc1ccccc1-c1nc(C(F)(F)F)c(C(=O)NC(C)c2cccc(C(F)(F)F)c2)s1` (stereo not shown) [Example 19, 2-(2-methoxyphenyl)-4-(trifluoromethyl)-N-[1-[3-(trifluoromethyl)phenyl]ethyl]-5-thiazolecarboxamide]: the Min. conc. response turned out to be 3 µM and the EC50 was under 50 nM. For `CC(NC(=O)c1sc(-c2ccc3c(c2)OCO3)nc1C(F)(F)F)c1cccc(OC(F)(F)F)c1` (stereo not shown) [Example 20, 2-(3,4-dioxolanylphenyl)-4-(trifluoromethyl)-N-[1-[3-(trifluoromethoxy)phenyl]ethyl]-5-thiazolecarboxamide], in that order: 0.3 µM and 1000 to 20000 nM. For `CC(NC(=O)c1sc(-c2ccccc2F)nc1C(F)(F)F)c1cccc(C(F)(F)F)c1` (stereo not shown) [Example 22, 2-(2-fluorophenyl)-4-(trifluoromethyl)-N-[1-[3-(trifluoromethyl)phenyl]ethyl]-5-thiazolecarboxamide], in that order: 0.3 µM and under 50 nM. The like results for `COc1ccccc1-c1nc(C(F)(F)F)c(C(=O)N[C@@H](C)c2cccc(N3CCOCC3)c2)s1` [Example 23, 2-(2-methoxyphenyl)-4-(trifluoromethyl)-N-[1-[3-(1-morpholinyl)phenyl]ethyl]-5-thiazolecarboxamide] were, in that order, 3 µM and 50 to 1000 nM.

Molecule `COc1ccccc1-c1nc(C(F)(F)F)c(C(=O)NC(C)c2cccc(N(C)C)c2)s1` (stereo not shown) [Example 25, 2-(2-methoxyphenyl)-4-(trifluoromethyl)-N-[1-[3-(dimethylamino)phenyl]ethyl]-5-thiazolecarboxamide] displayed a Min. conc. response of 3 µM and an EC50 of 1000 to 20000 nM.

`CC(NC(=O)c1sc(-c2ccccc2F)nc1C(F)(F)F)c1cccc(N(C)C)c1` (stereo not shown) [Example 26, 2-(2-fluorophenyl)-4-(trifluoromethyl)-N-[1-[3-(dimethylamino)phenyl]ethyl]-5-thiazolecarboxamide] showed a Min. conc. response of 3 µM and a concentration giving a half-maximal response (EC50) of 50 to 1000 nM.

In the case of `COc1ccccc1-c1nc(C(F)(F)F)c(C(=O)NCc2cccc(F)c2)s1` [Example 27, 2-(2-methoxyphenyl)-4-(trifluoromethyl)-N-(3-fluorophenyl)methyl-5-thiazolecarboxamide], the Min. conc. response was 3 µM and the EC50 lay within 1000 to 20000 nM. The like results for `COc1ccc(-c2nc(C(F)(F)F)c(C(=O)NC(C)c3cccc(OC(F)(F)F)c3)s2)cc1` (stereo not shown) [Example 28, 2-(4-methoxyphenyl)-4-(trifluoromethyl)-N-[1-[3-(trifluoromethoxy)phenyl]ethyl]-5-thiazolecarboxamide] were, in that order, 10 µM and 1000 to 20000 nM.

`COc1ccc(-c2nc(C(F)(F)F)c(C(=O)NC(C)c3cccc(OC(F)(F)F)c3)s2)cc1OC` (stereo not shown) [Example 29, 2-(3,4-dimethoxyphenyl)-4-(trifluoromethyl)-N-[1-[3-(trifluoromethoxy)phenyl]ethyl]-5-thiazolecarboxamide] had a Min. conc. response of 3 µM and an EC50 of 50 to 1000 nM. The like results for `COc1ccc(-c2nc(C(F)(F)F)c(C(=O)NC(C)c3cccc(OC(F)(F)F)c3)s2)c(OC)c1` (stereo not shown) [Example 30, 2-(2,4-dimethoxyphenyl)-4-(trifluoromethyl)-N-[1-[3-(trifluoromethoxy)phenyl]ethyl]-5-thiazolecarboxamide] were, in that order, 3 µM and 50 to 1000 nM. The like results for `COc1ccc(-c2nc(C(F)(F)F)c(C(=O)N[C@@H](C)c3cccc(N4CCOCC4)c3)s2)c(OC)c1` [Example 31, 2-(2,4-dimethoxyphenyl)-4-(trifluoromethyl)-N-[1-[3-(4-morpholinyl)phenyl]ethyl]-5-thiazolecarboxamide] were, in that order, 3 µM and 1000 to 20000 nM. As for `COc1ccccc1-c1nc(C(F)(F)F)c(C(=O)NC(C)c2cccc(N3CCCCC3)c2)s1` (stereo not shown) [Example 32, 2-(2-methoxyphenyl)-4-(trifluoromethyl)-N-[1-[3-(1-piperidinyl)phenyl]ethyl]-5-thiazolecarboxamide], the Min. conc. response was 0.3 µM and the EC50 is under 50 nM.

On to `COc1ccccc1-c1nc(C(F)(F)F)c(C(=O)NC(C)c2cccc(N3CCCC3)c2)s1` (stereo not shown) [Example 33, 2-(2-methoxyphenyl)-4-(trifluoromethyl)-N-[1-[3-(1-pyrrolidinyl)phenyl]ethyl]-5-thiazolecarboxamide], for which the Min. conc. response turned out to be 3 µM and the EC50 was 50 to 1000 nM. For `COc1ccccc1-c1nc(C(F)(F)F)c(C(=O)NC(C)c2cccc(N(C)Cc3ccco3)c2)s1` (stereo not shown) [Example 34, 2-(2-methoxyphenyl)-4-(trifluoromethyl)-N-[1-[3-[(2-furanylmethyl)methylamino]phenyl]ethyl]-5-thiazolecarboxamide], in that order: 0.3 µM and under 50 nM. `CC(NC(=O)c1sc(-c2ccccc2F)nc1C(F)(F)F)c1cccc(N(C)Cc2ccco2)c1` (stereo not shown) [Example 35, 2-(2-fluorophenyl)-4-(trifluoromethyl)-N-[1-[3-[(2-furanylmethyl)methylamino]phenyl]ethyl]-5-thiazolecarboxamide]: the Min. conc. response was 0.3 µM and the EC50 was 50 to 1000 nM. In the case of `COc1ccc(-c2nc(C(F)(F)F)c(C(=O)NC(C)c3cccc(CN4CCCC4)c3)s2)cc1OC` (stereo not shown) [Example 36, 2-(3,4-dimethoxyphenyl)-4-(trifluoromethyl)-N-[1-[3-[(1-pyrrolidinyl)methyl]phenyl]ethyl]-5-thiazolecarboxamide], the Min. conc. response came out at 10 µM and the EC50 was 1000 to 20000 nM. For `CC(NC(=O)c1sc(-c2ccccc2F)nc1C(F)(F)F)c1cccc(CN2CCOCC2)c1` (stereo not shown) [Example 37, 2-(2-fluorophenyl)-4-(trifluoromethyl)-N-[1-[3-[(4-morpholinyl)methyl]phenyl]ethyl]-5-thiazolecarboxamide], in that order: 3 µM and 1000 to 20000 nM.

The molecule `CCN(CC)Cc1cccc(C(C)NC(=O)c2sc(-c3cccc4ccccc34)nc2C(F)(F)F)c1` (stereo not shown) [Example 38, 2-(1-naphthyl)-4-(trifluoromethyl)-N-[1-[3-[(diethylamino)methyl]phenyl]ethyl]-5-thiazolecarboxamide] showed a Min. conc. response of 30 µM and an EC50 of 1000 to 20000 nM.
